Results published in US20150274661A1, “INDOL-AMIDE COMPOUNDS AS BETA-AMYLOID INHBITORS” (Hoffmann-La Roche Inc., priority 2012, published 2015).

The molecules below were run on Aβ42 secretion (assay: Cellular γ-secretase assay (inhibition of Aβ42 secretion)). Details: Homo sapiens, 22 h, human neuroglioma H4 cells overexpressing human APP, 22 hours incubation.
Assay type: cell-based
Procedure: Cellular γ-Secretase Assay
The compounds were investigated in accordance with the test given hereinafter.
Human neuroglioma H4 cells overexpressing human APP were plated at 30,000 cells/well/200 μL in 96-well plates in IMDM media containing 10% FCS, […] Hygromycin B and incubated for 2 hours at 37° C., 5% CO2 prior to adding test compounds.
Compounds for testing were dissolved in 100% Me2SO yielding in a 10 mM stock solution. Typically 12 μL of these solutions were further diluted in 1000 μL of IMDM media (w/o FCS). Subsequent 1:1 dilutions gave a ten point dose response curve. 100 μL of each dilution was added to the cells in 96-well plates. Appropriate controls using vehicle only and reference compound were applied to this assay. The final concentration of Me2SO was 0.4%.
After incubation for 22 hours at 37° C., 5% CO2, 50 μL supernatant was transferred into round-bottom 96-well polypropylene plates for detection of Aβ42. 50 μL assay buffer (50 mM Tris/Cl, pH 7.4, 60 mM NaCl, 0.5% BSA, 1% TWEEN 20) was added to the wells followed by the addition of 100 μL of detection antibody (ruthenylated BAP15 0.0625 μg/mL in assay buffer). 50 μL of a premix of capture antibody (biotinylated 6E10 antibody, 1 μg/mL) and Streptavidin-coated magnetic beads (Dynal M-280, 0.125 mg/mL) were preincubated for 1 hour at room temperature before adding the assay plates. Assay plates were incubated on a shaker for 3 hours at room temperature and finally read in the Bioveris M8 Analyser according to the manufacturer's instructions (Bioveris).
IC50 values for inhibition of Aβ42 secretion were calculated by nonlinear regression fit analysis using XLfit 4.0 software (IDBS).
CC(C)C1(c2ccc3[nH]c(C(=O)Nc4ccc(F)c(F)c4)cc3c2)CNC(=O)C1 (stereo not shown) [Example 18, 5-(3-Isopropyl-5-oxo-pyrrolidin-3-yl)-1H-indole-2-carboxylic acid (3,4-difluoro-phenyl)-amide] was tested, and the EC50 was 2320 nM.
In the case of O=C(Nc1cccc(F)c1)c1cc2cc(C3CCCN(CC(F)(F)F)C3)ccc2[nH]1 (stereo not shown) [Example 73, N-(3-Fluorophenyl)-5-(1-(2,2,2-trifluoroethyl)piperidin-3-yl)-1H-indole-2-carboxamide], the EC50 is reported as 9290 nM.
O=C(Nc1cccc(F)c1)c1cc2cc([C@@H]3CCCN(CCO)C3)ccc2[nH]1 [Example 115, (S)—N-(3-Fluorophenyl)-5-(1-(2-hydroxyethyl)piperidin-3-yl)-1H-indole-2-carboxamide] showed an EC50 of 1500 nM.
C[C@@H](CN1CCCC1)c1ccc2[nH]c(C(=O)Nc3cccc(F)c3)cc2c1 [Example 119] was tested, and the EC50 was 1730 nM.
CC(=O)N1CCC[C@@H](c2ccc3[nH]c(C(=O)Nc4cc(F)cc(F)c4)cc3c2)C1 [Example 113, 5-((S)-1-Acetyl-piperidin-3-yl)-1H-indole-2-carboxylic acid (3,5-difluoro-phenyl)-amide] showed an EC50 of 1790 nM.
With CC(C)N1CCC(Nc2ccc3[nH]c(C(=O)Nc4ccc(F)c(F)c4)cc3c2)CC1 [Example 65, 5-(1-Isopropyl-piperidin-4-ylamino)-1H-indole-2-carboxylic acid (3,4-difluoro-phenyl)-amide] the EC50 was 2950 nM.
O=C(Nc1cccc(F)c1)c1cc2cc(C3CCN(Cc4ccccc4)C3)ccc2[nH]1 (stereo not shown) [Example 3, 5-(1-Benzylpyrrolidin-3-yl)-N-(3-fluorophenyl)-1H-indole-2-carboxamide] gave an EC50 of 1240 nM.
O=C(Nc1cccc(F)c1)c1cc2cc([C@H]3CCCN(CCO)C3)ccc2[nH]1 [Example 114, (R)—N-(3-Fluorophenyl)-5-(1-(2-hydroxyethyl)piperidin-3-yl)-1H-indole-2-carboxamide] was tested, and the EC50 was 273 nM.
Work on CN1CCC(c2ccc3[nH]c(C(=O)Nc4cc(F)cc(C#N)c4)cc3c2)C1 (stereo not shown) [Example 6, N-(3-Cyano-5-fluorophenyl)-5-(1-methylpyrrolidin-3-yl)-1H-indole-2-carboxamide] yielded an EC50 of 1420 nM.
Work on O=C(Nc1ccc(F)cc1)c1cc2cc(C3CCN(C(=O)c4ccccc4)CC3)ccc2[nH]1 [Example 35, 5-(1-Benzoyl-piperidin-4-yl)-1H-indole-2-carboxylic acid (4-fluoro-phenyl)-amide] yielded an EC50 of 1390 nM.
For O=C(Nc1cncc(F)c1)c1cc2cc(C3CCNC3)ccc2[nH]1 (stereo not shown) [Example 75, N-(5-Fluoropyridin-3-yl)-5-(pyrrolidin-3-yl)-1H-indole-2-carboxamide], the EC50 was 1310 nM.
CN1CCC(c2ccc3[nH]c(C(=O)Nc4ccc(F)cc4)cc3c2)CC1 [Example 36, 5-(1-Methyl-piperidin-4-yl)-1H-indole-2-carboxylic acid (4-fluoro-phenyl)-amide] gave an EC50 of 1090 nM.
Work on COC(=O)N1CCC(c2ccc3[nH]c(C(=O)Nc4ccc(F)cc4)cc3c2)CC1 [Example 41, 4-[2-(4-Fluoro-phenylcarbamoyl)-1H-indol-5-yl]-piperidine-1-carboxylic acid methyl ester] yielded an EC50 of 1910 nM.
N#CCN1CCC(c2ccc3[nH]c(C(=O)Nc4cncc(F)c4)cc3c2)C1 (stereo not shown) [Example 80, 5-(1-Cyanomethyl-pyrrolidin-3-yl)-1H-indole-2-carboxylic acid (5-fluoro-pyridin-3-yl)-amide] gave an EC50 of 942 nM.
Work on CC(c1ccc2[nH]c(C(=O)Nc3cc(F)cc(F)c3)cc2c1)C1CCNC1 (stereo not shown) [Example 92, N-(3,5-Difluorophenyl)-5-(1-(pyrrolidin-3-yl)ethyl)-1H-indole-2-carboxamide] yielded an EC50 of 1180 nM.
N#Cc1ccc(N2CCC(c3ccc4[nH]c(C(=O)Nc5cncc(F)c5)cc4c3)C2)nn1 (stereo not shown) [Example 83, 5-(1-(6-Cyanopyridazin-3-yl)pyrrolidin-3-yl)-N-(5-fluoropyridin-3-yl)-1H-indole-2-carboxamide] gave an EC50 of 3340 nM.
In the case of CC(C)S(=O)(=O)N1CCCC(c2ccc3[nH]c(C(=O)Nc4cc(F)cc(F)c4)cc3c2)C1 (stereo not shown) [Example 50, 5-[1-(Propane-2-sulfonyl)-piperidin-3-yl]-1H-indole-2-carboxylic acid (3,5-difluoro-phenyl)-amide], the EC50 is reported as 202 nM.
Work on O=C(Nc1ccc(F)c(F)c1)c1cc2cc(C3=COCCC3)ccc2[nH]1 [Example 85, 5-(5,6-Dihydro-4H-pyran-3-yl)-1H-indole-2-carboxylic acid (3,4-difluoro-phenyl)-amide] yielded an EC50 of 445 nM.
CC(c1ccc2[nH]c(C(=O)Nc3cc(F)cc(F)c3)cc2c1)N1CCCCC1=O (stereo not shown) [Example 89, 5-[1-(2-Oxo-piperidin-1-yl)-ethyl]-1H-indole-2-carboxylic acid (3,5-difluoro-phenyl)-amide] gave an EC50 of 4400 nM.
Work on C=CCCN1CCC(c2ccc3[nH]c(C(=O)Nc4cncc(F)c4)cc3c2)C1 (stereo not shown) [Example 78, 5-(1-(But-3-enyl)pyrrolidin-3-yl)-N-(5-fluoropyridin-3-yl)-1H-indole-2-carboxamide] yielded an EC50 of 927 nM.
O=C(Nc1cc(F)cc(F)c1)c1cc2cc(C3CCNC3)ccc2[nH]1 (stereo not shown) [Example 7, 5-Pyrrolidin-3-yl-1H-indole-2-carboxylic acid (3,5-difluoro-phenyl)-amide] showed an EC50 of 253 nM.
In the case of O=C(Nc1cccc(F)c1)c1cc2cc(C3CCCNC3)ccc2[nH]1 (stereo not shown) [Example 69, N-(3-Fluorophenyl)-5-(piperidin-3-yl)-1H-indole-2-carboxamide], the EC50 is reported as 662 nM.
Molecule CC(C)N1CCC(c2ccc3[nH]c(C(=O)Nc4cccc(F)c4)cc3c2)CC1 [Example 20, 5-(1-Isopropyl-piperidin-4-yl)-1H-indole-2-carboxylic acid (3-fluoro-phenyl)-amide] has an EC50 of 832 nM.
N#Cc1cc(F)cc(NC(=O)c2cc3cc(C4CCN(Cc5ccccc5)C4)ccc3[nH]2)c1 (stereo not shown) [Example 5, 5-(1-Benzylpyrrolidin-3-yl)-N-(3-cyano-5-fluorophenyl)-1H-indole-2-carboxamide] showed an EC50 of 631 nM.
CC(C)N1CCC(c2ccc3[nH]c(C(=O)Nc4cccc(F)c4)cc3c2)C1 (stereo not shown) [Example 14, N-(3-Fluorophenyl)-5-(1-isopropylpyrrolidin-3-yl)-1H-indole-2-carboxamide] showed an EC50 of 519 nM.
O=C(Nc1cccc(F)c1)c1cc2cc(C3CCCN(CC4CC4)C3)ccc2[nH]1 (stereo not shown) [Example 71, 5-(1-(Cyclopropylmethyl)piperidin-3-yl)-N-(3-fluorophenyl)-1H-indole-2-carboxamide] was tested, and the EC50 was 977 nM.
O=C(Nc1cc(F)cc(F)c1)c1cc2cc(C3CCCN(C(=O)c4ccccc4)C3)ccc2[nH]1 (stereo not shown) [Example 55, 5-(1-Benzoyl-piperidin-3-yl)-1H-indole-2-carboxylic acid (3,5-difluoro-phenyl)-amide] gave an EC50 of 449 nM.
For CC(c1ccc2[nH]c(C(=O)Nc3cc(F)cc(F)c3)cc2c1)C1CCN(C(C)C)C1 (stereo not shown) [Example 93, N-(3,5-Difluorophenyl)-5-(1-(1-isopropylpyrrolidin-3-yl)ethyl)-1H-indole-2-carboxamide], the EC50 was 1190 nM.
Molecule CCC(=O)N1CCC(c2ccc3[nH]c(C(=O)Nc4ccc(F)cc4)cc3c2)CC1 [Example 44, 5-(1-Propionyl-piperidin-4-yl)-1H-indole-2-carboxylic acid (4-fluoro-phenyl)-amide] has an EC50 of 4380 nM.
With CC(C)N1CCCC(c2ccc3[nH]c(C(=O)Nc4cccc(F)c4)cc3c2)C1 (stereo not shown) [Example 46, 5-(1-Isopropyl-piperidin-3-yl)-1H-indole-2-carboxylic acid (3-fluoro-phenyl)-amide] the EC50 was 588 nM.
Work on C=C(CCN1CCCCC1)c1ccc2[nH]c(C(=O)Nc3cc(F)cc(F)c3)cc2c1 [Example 97, N-(3,5-Difluorophenyl)-5-(4-(piperidin-1-yl)but-1-en-2-yl)-1H-indole-2-carboxamide] yielded an EC50 of 1260 nM.
Work on O=C(Nc1cc(F)cc(F)c1)c1cc2cc(C3CCCN(S(=O)(=O)c4ccccc4)C3)ccc2[nH]1 (stereo not shown) [Example 53, 5-(1-Benzenesulfonyl-piperidin-3-yl)-1H-indole-2-carboxylic acid (3,5-difluoro-phenyl)-amide] yielded an EC50 of 392 nM.
Work on N#Cc1cc(F)cc(NC(=O)c2cc3cc(C4CCNC4)ccc3[nH]2)c1 (stereo not shown) [Example 9, N-(3-Cyano-5-fluorophenyl)-5-(pyrrolidin-3-yl)-1H-indole-2-carboxamide] yielded an EC50 of 1270 nM.
O=C(Nc1cccc(F)c1)c1cc2cc([C@H]3CCCN(C4CC4)C3)ccc2[nH]1 [Example 116, (R)-5-(1-Cyclopropylpiperidin-3-yl)-N-(3-fluorophenyl)-1H-indole-2-carboxamide] was tested, and the EC50 was 545 nM.
With COCCN1CCCC(c2ccc3[nH]c(C(=O)Nc4cccc(F)c4)cc3c2)C1 (stereo not shown) [Example 66, N-(3-Fluorophenyl)-5-(1-(2-methoxyethyl)piperidin-3-yl)-1H-indole-2-carboxamide] the EC50 was 727 nM.

Same assay, conditions: human neuroglioma H4 cells overexpressing human APP, 22 hours incubation
Work on CN1CC[C@H](c2ccc3[nH]c(C(=O)Nc4cc(F)cc(F)c4)cc3c2)C1 [Example 103, 5-((R)-1-Methyl-pyrrolidin-3-yl)-1H-indole-2-carboxylic acid (3,5-difluoro-phenyl)-amide] yielded an EC50 of 374 nM.
CN1CCC(c2ccc3[nH]c(C(=O)Nc4cc(F)cc(F)c4)cc3c2)C1 (stereo not shown) [Example 2, 5-(1-Methyl-pyrrolidin-3-yl)-1H-indole-2-carboxylic acid (3,5-difluoro-phenyl)-amide] showed an EC50 of 178 nM.
